Reference: patent US8753691B2, “Antiviral colloidal silver composition” (priority 1999, dated 2014)
In brackets after ≈: the same amount, converted by molar mass. Several values for one entry are separate records, joined by “and”; a condition that tells them apart may be missing. Equal values may be shown once. Read-outs that look alike come from different tables or passages of the source.

Assays:
[1] = tested on: Staphylococcus aureus ATCC #6538
Description: (§1) At 30 second intervals, 0.5 ml of each challenge culture was added to the appropriate dilutions of phenol, agitated, and replaced into the water bath: After the appropriate exposure times of 5, 10, and 15 minutes, a loopful of suspension was removed from the assay tubes and transferred to tubes of letheen broth (LETH).

[2] = tested on: Salmonella choleraesuis ATCC #10708; conditions: 5, 10 or 15 min
Description: as §1

[3] = tested on: Pseudomonas aeruginosa ATCC #15442
Description: as §1

S gordonii = assay: MIC/MBC broth microdilution; assay type: cell-based; conditions: for MIC: read-out: MIC (minimum inhibitory concentration)
S. faecalis = assay: MIC/MBC broth microdilution; assay type: cell-based
S. boydii = assay: MIC/MBC broth microdilution; assay type: cell-based; conditions: for MBC: read-out: MBC (minimum bactericidal concentration)
S. typhimurium = assay: MIC/MBC broth microdilution; assay type: cell-based; conditions: for MBC: read-out: MBC (minimum bactericidal concentration)
E. cloacae = assay: MIC/MBC broth microdilution; assay type: cell-based
E. aerogenes = assay: MIC/MBC broth microdilution; assay type: cell-based
E. coli = assay: MIC/MBC broth microdilution; assay type: cell-based
K. oxytoca = assay: MIC/MBC broth microdilution; assay type: cell-based
S. pyogenes = assay: MIC/MBC broth microdilution; assay type: cell-based
S. aureus = assay: MIC/MBC broth microdilution; assay type: cell-based
K. pneumoniae = assay: MIC/MBC broth microdilution; assay type: cell-based
S. mutans = assay: MIC/MBC broth microdilution; assay type: cell-based
S. pneumoniae = assay: MIC/MBC broth microdilution; assay type: cell-based
S arizona = assay: MIC/MBC broth microdilution; assay type: cell-based; conditions: for MBC: read-out: MBC (minimum bactericidal concentration); for MIC: read-out: MIC (minimum inhibitory concentration)
P. aeruginosa = assay: MIC/MBC broth microdilution; assay type: cell-based
[4] = target: Moloney murine leukemia virus reverse transcriptase (MoMuLV) (Moloney murine leukemia virus, UniProt P03355); assay: Test of reverse transcriptase inhibition; conditions: 3 μl inhibitor; 37° C. 2 hours; AZT at 0.625 microgram/ml

Q: Which results are given for `Oc1ccccc1` [phenol]?
A: growth after phenol treatment ([1]; 1:60 phenol, 5 or 10 min): showed growth; growth after phenol treatment ([1]; 1:60 phenol, 15 min): no growth; growth after phenol treatment ([1]; 1:70 phenol, 5, 10 or 15 min): showed growth; growth after phenol treatment ([2]; 1:90 phenol): no growth; growth after phenol treatment ([2]; 1:100 phenol): showed growth; growth after phenol treatment ([3]; 1:80 phenol, 5 or 10 min): showed growth; growth after phenol treatment ([3]; 1:80 phenol, 15 min): no growth; growth after phenol treatment ([3]; 1:90 phenol, 5, 10 or 15 min): showed growth

Q: How did the “MBC (minimum bactericidal concentration)” value (S gordonii) turn out when `CC1(C)S[C@@H]2[C@H](NC(=O)Cc3ccccc3)C(=O)N2[C@H]1C(=O)O` [Penicillin G] was run?
A: 0.039 ppm

Q: What about the “MIC (minimum inhibitory concentration)” value (S gordonii) of the same compound?
A: 0.009 ppm

Q: And the “MBC (minimum bactericidal concentration)” value (S. faecalis)?
A: 5.0/>5.0 ppm

Q: And the “MIC (minimum inhibitory concentration)” value (S. faecalis)?
A: 5.0/>5.0 ppm

Q: And the “MIC (minimum inhibitory concentration)” value (S. boydii)?
A: >5.0 ppm

Q: What about the “MIC (minimum inhibitory concentration)” value (S. typhimurium) of the same compound?
A: >5.0 ppm

Q: And the “MIC (minimum inhibitory concentration)” value (E. cloacae)?
A: >5.0 ppm

Q: And the “MIC (minimum inhibitory concentration)” value (E. aerogenes)?
A: >5.0 ppm

Q: What about the “MIC (minimum inhibitory concentration)” value (E. coli) of the same compound?
A: >5.0 ppm

Q: And the “MIC (minimum inhibitory concentration)” value (K. oxytoca)?
A: >5.0 ppm

Q: What about the “MIC (minimum inhibitory concentration)” value (S. pyogenes) of the same compound?
A: >5.0 ppm

Q: What about the “MBC (minimum bactericidal concentration)” value (S. aureus) of the same compound?
A: > 5.0 ppm

Q: And the “MIC (minimum inhibitory concentration)” value (S. aureus)?
A: 2.5 ppm

Q: And the “MIC (minimum inhibitory concentration)” value (K. pneumoniae)?
A: >5.0 ppm

Q: And the “MBC (minimum bactericidal concentration)” value (S. mutans)?
A: > 5 ppm

Q: And the “MIC (minimum inhibitory concentration)” value (S. mutans)?
A: 0.521 ppm

Q: What about the “MBC (minimum bactericidal concentration)” value (S. pneumoniae) of the same compound?
A: 0.019/0.019 ppm

Q: What about the “MIC (minimum inhibitory concentration)” value (S. pneumoniae) of the same compound?
A: 0.019/0.019 ppm

Q: What about the “MIC (minimum inhibitory concentration)” value (S arizona) of the same compound?
A: >5.0 ppm

Q: What about the “MBC (minimum bactericidal concentration)” value (P. aeruginosa) of the same compound?
A: > 5.0 ppm

Q: And the “MIC (minimum inhibitory concentration)” value (P. aeruginosa)?
A: 0.13 ppm

Q: `CCN1CCN(C(=O)N[C@@H](C(=O)N[C@@H]2C(=O)N3C(C(=O)O)=C(CSc4nnnn4C)CS[C@H]23)c2ccc(O)cc2)C(=O)C1=O` [Cefaperazone] was tested. Which “MBC (minimum bactericidal concentration)” value (S gordonii) did it give?
A: 1.25/1.25 ppm

Q: And the “MIC (minimum inhibitory concentration)” value (S gordonii)?
A: 1.25/1.25 ppm

Q: And the “MIC (minimum inhibitory concentration)” value (S. faecalis)?
A: >5.0 ppm

Q: And the “MBC (minimum bactericidal concentration)” value (S. boydii; S. boydii)?
A: 0.625/0.625 ppm

Q: And the “MIC (minimum inhibitory concentration)” value (S. boydii; S. boydii)?
A: 0.625/0.625 ppm

Q: What about the “MBC (minimum bactericidal concentration)” value (S. typhimurium) of the same compound?
A: 2.5 ppm

Q: What about the “MIC (minimum inhibitory concentration)” value (S. typhimurium) of the same compound?
A: 1.25 ppm

Q: And the “MBC (minimum bactericidal concentration)” value (E. aerogenes)?
A: > 5.0 ppm

Q: What about the “MIC (minimum inhibitory concentration)” value (E. aerogenes) of the same compound?
A: 2.92 ppm

Q: And the “MBC (minimum bactericidal concentration)” value (E. coli)?
A: > 5.0 ppm

Q: What about the “MIC (minimum inhibitory concentration)” value (E. coli) of the same compound?
A: 0.625 ppm

Q: What about the “MBC (minimum bactericidal concentration)” value (K. oxytoca) of the same compound?
A: > 5.0 ppm

Q: What about the “MIC (minimum inhibitory concentration)” value (K. oxytoca) of the same compound?
A: 1.25 ppm

Q: And the “MBC (minimum bactericidal concentration)” value (S. pyogenes)?
A: 1.25 ppm

Q: What about the “MIC (minimum inhibitory concentration)” value (S. pyogenes) of the same compound?
A: 0.313 ppm

Q: What about the “MBC (minimum bactericidal concentration)” value (S. aureus) of the same compound?
A: 5.0/5.0 ppm

Q: What about the “MIC (minimum inhibitory concentration)” value (S. aureus) of the same compound?
A: 5.0/5.0 ppm

Q: What about the “MIC (minimum inhibitory concentration)” value (K. pneumoniae) of the same compound?
A: >5.0 ppm

Q: And the “MBC (minimum bactericidal concentration)” value (S. mutans)?
A: > 5 ppm

Q: And the “MIC (minimum inhibitory concentration)” value (S. mutans)?
A: 1.25 ppm

Q: What about the “MBC (minimum bactericidal concentration)” value (S. pneumoniae) of the same compound?
A: 0.313/0.313 ppm

Q: And the “MIC (minimum inhibitory concentration)” value (S. pneumoniae)?
A: 0.313/0.313 ppm

Q: And the “MBC (minimum bactericidal concentration)” value (S arizona)?
A: > 5.0 ppm

Q: What about the “MIC (minimum inhibitory concentration)” value (S arizona) of the same compound?
A: 0.833 ppm

Q: What about the “MBC (minimum bactericidal concentration)” value (P. aeruginosa) of the same compound?
A: 5.0 ppm

Q: What about the “MIC (minimum inhibitory concentration)” value (P. aeruginosa) of the same compound?
A: 2.5 ppm

Q: With `CN(C)[C@@H]1C(O)=C(C(N)=O)C(=O)[C@@]2(O)C(O)=C3C(=O)c4c(O)cccc4[C@@](C)(O)[C@H]3C[C@@H]12` [Tetracycline] as the compound, how does the MBC (S. boydii; S. boydii) read?
A: > 5 µg/mL

Q: What about the MBC (S. typhimurium; Salmonella enterica) of the same compound?
A: > 5 µg/mL

Q: What about the MBC (K. oxytoca; Klebsiella oxytoca, read-out: MBC (minimum bactericidal concentration)) of the same compound?
A: > 5 µg/mL

Q: What about the MBC (S arizona) of the same compound?
A: > 5 µg/mL

Q: And the MIC (S arizona)?
A: 0.625 µg/mL (≈ 1.41 µM)

Q: Which MBC (S gordonii; read-out: MBC (minimum bactericidal concentration)) does the source give for `CC1COc2c(N3CCN(C)CC3)c(F)cc3c(=O)c(C(=O)O)cn1c23` (stereo not shown) [Ofloxacin] here?
A: 5 µg/mL (≈ 13.8 µM)

Q: What about the MIC (S gordonii) of the same compound?
A: 2.5 µg/mL (≈ 6.92 µM)

Q: And the MBC (S. boydii; S. boydii)?
A: 0.156 µg/mL (≈ 0.432 µM)

Q: And the MBC (S. typhimurium; Salmonella enterica)?
A: 0.156 µg/mL (≈ 0.432 µM)

Q: And the MIC (S. typhimurium; Salmonella enterica, read-out: MIC (minimum inhibitory concentration))?
A: 0.078 µg/mL (≈ 0.216 µM)

Q: And the MBC (E. aerogenes; Klebsiella aerogenes, read-out: MBC (minimum bactericidal concentration))?
A: 0.156 µg/mL (≈ 0.432 µM)

Q: And the MIC (E. aerogenes; Klebsiella aerogenes, read-out: MIC (minimum inhibitory concentration))?
A: 0.078 µg/mL (≈ 0.216 µM)

Q: What about the MIC (S arizona) of the same compound?
A: 0.078 µg/mL (≈ 0.216 µM)

Q: Which “% Inhibition (reverse transcriptase)” value [4] does the source give for `Cc1cn([C@H]2C[C@H](N=[N+]=[N-])[C@@H](CO)O2)c(=O)[nH]c1=O` [AZT, zidovudine (AZT)] here?
A: 31.33% and 18.06%

Q: What does the source list for `CC[C@H]1OC(=O)[C@H](C)[C@@H](O[C@H]2C[C@@](C)(OC)[C@@H](O)[C@H](C)O2)[C@H](C)[C@@H](O[C@@H]2O[C@H](C)C[C@H](N(C)C)[C@H]2O)[C@](C)(O)C[C@@H](C)C(=O)[C@H](C)[C@@H](O)[C@]1(C)O` [Erythromycin]?
A: MIC (S gordonii): 0.005 µg/mL (≈ 0.00681 µM); MBC (S. boydii; S. boydii): > 5 µg/mL; MIC (S. boydii; S. boydii, read-out: MIC (minimum inhibitory concentration)): 5 µg/mL (≈ 6.81 µM); MBC (S arizona): > 5 µg/mL
